Experimental data as given in patent publication US20220249637A1, “COMBINATION THERAPY OF A CELL-MEDIATED CYTOTOXIC THERAPY AND AN INHIBITOR OF A PROSURVIVAL BCL2 FAMILY PROTEIN” (Juno Therapeutics, Inc., priority 2019, published 2022).

What was measured:
[1] = test system: human plasma proteins; conditions: cited from earlier work
[2] = test system: RL cells; experiment: RL target cell co-culture with CAR T cells and venetoclax (NLR microscopy); format: cell-based; conditions: with CAR T cells E:T 1:1, 0.1 venetoclax
Description: Anti-CD19 CAR-expressing T cell compositions, generated as described in Example 1, were cultured with the CD19-expressing lymphoma target cell line RL. Target cells were engineered with a lentiviral reagent to express NucLight Red (NLR) to permit tracking of the cells by microscopy. […] The anti-CD19 CART cells were co-cultured with target RL cells at an E:T ratio of 1:1, and the co-cultures were carried out in the presence of 0.1 μM of the exemplary BCL2 inhibitor venetoclax. For comparison, target cells were incubated only in the presence of the CAR T cells or 0.1 μM of the inhibitor.

[3] = test system: RL spheroids; experiment: RL spheroid 3D tumor model, co-culture for 9 days; format: cell-based
Description: The resistance of the RL cell line to CD19-directed CAR T cells was further assessed in a 3D tumor model. An anti-CD19 CAR-expressing T cell composition was generated from a human adult donor, substantially as described in Example 1. RL tumor cells engineered to express NLR were allowed to form spheroids for 72 hours, then co-cultured for 9 days with the anti-CD19 CAR T cells at an E:T ratio of 1:1. A subtherapeutic concentration of the exemplary BCL2 inhibitor venetoclax (0.1 μM) was added at the beginning of co-culture, and tumor volume was measured over time (FIG. 5B).
In a related experiment, spheroids were generated from CD19-expressing RL cells as described, and co-cultured for 9 days with anti-CD19 CAR T cells and increasing concentrations of venetoclax (0.01 μM, 0.1 μM, or 1.0 μM), or with only corresponding concentrations of venetoclax.

In the case of CC1(C)CCC(CN2CCN(c3ccc(C(=O)NS(=O)(=O)c4ccc(NCC5CCOCC5)c([N+](=O)[O-])c4)c(Oc4cnc5[nH]ccc5c4)c3)CC2)=C(c2ccc(Cl)cc2)C1 [venetoclax], the plasma protein binding [1] is listed as “can bind human plasma proteins”, the target cell killing [2] is listed as “sensitized to the CD19-directed CAR T cell killing” and the “apoptosis of tumor cells” value ([3]; combination of venetoclax and anti-CD19 CAR T cells (data not shown)) is listed as “induce apoptosis of tumor cells”. The tumor size ([3]; day 9, venetoclax 0.01, 0.1 or 1.0 μM) was “larger concentrations of venetoclax resulted in larger decreases in tumor size”, the “size of RL spheroids” value ([3]; day 9, with anti-CD19 CAR T cells, venetoclax 0.01, 0.1 or 1.0 μM, compared to venetoclax only) was “decreased substantially more” and the tumor volume ([3]; with anti-CD19 CAR T cells E:T 1:1, 0.1 μM venetoclax, 9 days) was “resulted in decreased tumor volume”.
